Reference: publication PMC2990587, “Central nervous system penetration and enhancement of temozolomide activity in childhood medulloblastoma models by poly(ADP-ribose) polymerase inhibitor AG-014699” (British Journal of Cancer, 2010)
“Also recorded” adds a separate entry of the source.

What was measured:
[1] = target: T1, PARP-1 (Homo sapiens, UniProt P09874); assay: PARP activity in permeabilised D283Med cells (10H anti-PAR immunoassay); format: cell-based
Protocol: Inhibition of PARP activity in 5000 exponentially growing D283Med cells was measured following treatment with a range of AG-014699 concentrations (0–1 μM), in comparison with DMSO-only controls. Maximally stimulated PARP activity was measured in replicate samples (n⩾3) of permeabilised cells by immunological detection of the amount of poly(ADP-ribose) (PAR) formed, using 10H anti-PAR antibody, during a 6-min incubation with NAD^+ and oligonucleotide (substrate and activator) by reference to a PAR (Biomol Research Labs, Plymouth, PA, USA) standard curve using a GCLP-validated assay described previously ([Plummer et al, 2005]).

[2] = system: D425Med cells; assay: XTT growth inhibition, D425Med; format: cell-based, human
Protocol: (§1) Cell growth inhibition was estimated in exponentially growing D425Med, D283Med and D384Med cells in 96-well plates. Seeding densities of 1 × 10^3, 3 × 10^3 and 3 × 10^3 cells, respectively, ensured exponential growth for the duration of the experiment. At 24 h (D384Med) or 48 h (D283Med and D425Med) after seeding, cells were exposed to varying concentrations of temozolomide, as described in the Results, in the presence or absence of 0.4 μM AG-014699, a concentration previously shown to enhance temozolomide cytotoxicity in adult tumour cell lines ([Thomas et al, 2007]). After 3 days (D425Med and D384Med) or 5 days (D283Med) of culture (equivalent to approximately three cell divisions), the cell viability was quantified using an XTT cell proliferation kit assay (Roche, Mannheim, Germany), according to the manufacturer's instructions. Cell growth was expressed as a percentage in relation to DMSO or 0.4 μM AG-014699-alone controls. The concentration of temozolomide, alone or in combination with AG-014699, that inhibited growth by 50% (GI50) was calculated from computer-generated curves (GraphPad Software, San Diego, CA, USA). The potentiation factor50 (PF50) is defined as the ratio of […]. All data were from at least three independent experiments.

[3] = system: D283Med cells; assay: XTT growth inhibition, D283Med; format: cell-based, human
Protocol: as §1

[4] = system: D384Med cells; assay: XTT growth inhibition, D384Med; format: cell-based, human
Protocol: as §1

[5] = target: T2, PARP-1 (Mus musculus, UniProt P11103); assay: PARP activity in brain homogenates after AG-014699 dosing; format: in vivo
T2 construct: from tissue; host or cells: brain of CD-1 nude mice
Protocol: (§2) One or four daily doses of PARP inhibitor AG-014699 (1 mg kg^−1 intraperitoneally (i.p.)) were given to CD-1 nude mice bearing established D283Med xenografts. At 0.5, 2, 6 and 24 h after the initial or fourth daily dose of AG-014699, three animals per time point were bled by cardiac puncture under general anaesthesia, and then killed. Plasma was separated from the blood samples using standard methods and stored at −80°C. The brains and tumours were removed, snap frozen in liquid nitrogen and stored at −80°C before analysis. Blood, tumour and brain tissue were removed from three untreated control animals and processed in the same way.
(§3) PARP activity was determined in homogenates of subcutaneous D283Med xenografts and brain tissue (see above). Maximally stimulated PARP activity was measured in replicate samples (n⩾3) of a 1 : 1000 dilution of the homogenate as described for permeabilised D283Med cells (see above). Data were calculated as pmol PAR per mg protein by reference to the PAR standard curve and protein content of the sample and expressed as a percentage of the corresponding tissue from the saline-treated control animals. The mean PARP activity in xenograft and brain samples taken at each time point was expressed as a percentage of the mean PARP activity of control xenografts from untreated mice (n=3).

[6] = target: T1, PARP-1; assay: PARP activity in D283Med xenograft homogenates after AG-014699 dosing; format: in vivo, mouse
Protocol: as §2, §3

[7] = system: D283Med xenografts; assay: Tumour growth inhibition in vivo, D283Med xenografts; set-up: species or system mouse
From the text: (§4) All of the in vivo experiments were reviewed and approved by the relevant institutional animal welfare committees, and performed according to national law. Female athymic nude mice (CD1 nu/nu; Charles River, Margate, UK) used for anti-tumour studies were maintained and handled in isolators under specific pathogen-free conditions. […], […] and […] (1 × 10^7 exponentially growing cells per mouse, harvested and implanted in growth media) xenografts were established by sub-cutaneous implantation into CD-1 nude mice. […] Treatment was initiated when sufficient number of mice had established tumours to allow randomisation into treatment groups: day 17 for […], day 26 for […] and day 32 for […]. […] For drug combinations, AG-014699 was administered immediately after administering temozolomide. […] Tumour growth delay (TGD) is defined as the time to RTV4 in drug-treated mice compared with the time to RTV4 in control (vehicle alone) mice. Median tumour volume is shown, rather than the mean, as this is generally accepted as the most statistically reliable representation of the average growth rate of tumours in a small group of mice, if a normal distribution of tumour volumes cannot be assumed. Tumour growth delay was calculated as: median time to RTV4 in treated group-median time to RTV4 in control group.

[8] = system: D384Med xenografts; assay: Tumour growth inhibition in vivo, D384Med xenografts; set-up: species or system mouse
From the text: as §4

T1 sequence (P09874 whole entry): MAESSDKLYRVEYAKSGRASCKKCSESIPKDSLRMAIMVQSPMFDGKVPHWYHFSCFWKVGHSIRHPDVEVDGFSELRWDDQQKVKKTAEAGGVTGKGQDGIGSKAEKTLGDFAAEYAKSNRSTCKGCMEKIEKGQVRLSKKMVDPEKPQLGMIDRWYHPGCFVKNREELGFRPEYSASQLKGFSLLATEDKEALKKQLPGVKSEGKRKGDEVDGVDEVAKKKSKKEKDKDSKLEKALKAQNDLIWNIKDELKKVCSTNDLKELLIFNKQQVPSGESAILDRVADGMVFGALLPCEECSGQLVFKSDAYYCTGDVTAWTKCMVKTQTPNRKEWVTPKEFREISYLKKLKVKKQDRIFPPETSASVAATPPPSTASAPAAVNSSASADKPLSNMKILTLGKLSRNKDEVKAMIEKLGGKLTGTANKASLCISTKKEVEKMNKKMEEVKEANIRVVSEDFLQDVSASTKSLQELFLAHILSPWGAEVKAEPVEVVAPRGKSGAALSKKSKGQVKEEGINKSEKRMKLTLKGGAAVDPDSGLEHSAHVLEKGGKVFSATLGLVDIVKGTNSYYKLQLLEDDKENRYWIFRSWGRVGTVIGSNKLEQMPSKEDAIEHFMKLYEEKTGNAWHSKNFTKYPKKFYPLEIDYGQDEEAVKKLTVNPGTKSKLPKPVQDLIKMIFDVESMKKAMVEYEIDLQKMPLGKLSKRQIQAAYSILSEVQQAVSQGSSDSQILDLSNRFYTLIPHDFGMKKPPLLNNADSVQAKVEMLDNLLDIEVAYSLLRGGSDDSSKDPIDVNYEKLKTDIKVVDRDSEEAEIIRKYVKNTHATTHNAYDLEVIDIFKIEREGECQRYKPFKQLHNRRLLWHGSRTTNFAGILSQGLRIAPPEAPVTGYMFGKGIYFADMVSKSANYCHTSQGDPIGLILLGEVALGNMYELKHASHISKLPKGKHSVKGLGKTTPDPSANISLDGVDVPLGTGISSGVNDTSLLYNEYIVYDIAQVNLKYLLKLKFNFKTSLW
T2 sequence (P11103 whole entry): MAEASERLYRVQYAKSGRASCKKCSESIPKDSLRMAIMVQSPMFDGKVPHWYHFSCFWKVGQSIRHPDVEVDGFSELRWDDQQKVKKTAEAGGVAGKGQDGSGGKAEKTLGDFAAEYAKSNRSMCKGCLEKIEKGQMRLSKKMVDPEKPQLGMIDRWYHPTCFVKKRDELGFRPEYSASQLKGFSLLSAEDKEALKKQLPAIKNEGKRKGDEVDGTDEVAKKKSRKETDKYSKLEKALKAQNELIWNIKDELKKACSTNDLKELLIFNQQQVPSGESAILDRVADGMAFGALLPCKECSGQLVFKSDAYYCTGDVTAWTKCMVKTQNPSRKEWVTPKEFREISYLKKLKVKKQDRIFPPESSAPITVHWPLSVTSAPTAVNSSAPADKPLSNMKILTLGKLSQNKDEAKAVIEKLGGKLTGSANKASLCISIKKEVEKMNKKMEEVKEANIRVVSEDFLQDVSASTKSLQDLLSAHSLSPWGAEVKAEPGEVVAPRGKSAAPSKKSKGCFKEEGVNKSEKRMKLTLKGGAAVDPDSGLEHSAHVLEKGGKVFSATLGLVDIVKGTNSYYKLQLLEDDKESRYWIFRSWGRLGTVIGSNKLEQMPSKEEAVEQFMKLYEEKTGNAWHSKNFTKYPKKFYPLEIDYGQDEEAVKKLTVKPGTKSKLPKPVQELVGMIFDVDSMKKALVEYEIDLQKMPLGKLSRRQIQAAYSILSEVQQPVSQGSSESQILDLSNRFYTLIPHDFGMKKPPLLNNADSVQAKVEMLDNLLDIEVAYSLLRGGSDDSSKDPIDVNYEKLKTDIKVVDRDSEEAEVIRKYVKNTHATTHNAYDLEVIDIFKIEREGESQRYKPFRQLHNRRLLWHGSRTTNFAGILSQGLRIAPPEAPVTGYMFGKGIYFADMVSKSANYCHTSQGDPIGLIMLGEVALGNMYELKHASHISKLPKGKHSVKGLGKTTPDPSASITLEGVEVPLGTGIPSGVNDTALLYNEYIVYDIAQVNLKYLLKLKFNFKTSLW

SMILES: CNCc1ccc(-c2[nH]c3cc(F)cc4c3c2CCNC4=O)cc1 [AG-014699]
- Inhibition of PARP-1 activity ([1]; 0.1 μM AG-014699): 80%
- Inhibition of PARP-1 activity ([1]; 0.4 μM AG-014699): > 95%
- inhibition at 0.1 µM ([1]; D283 Med, 0.1 μM AG-014699): 81.1%
- inhibition at 0.4 µM ([1]; D283 Med, 0.4 μM AG-014699): 96.8%
- inhibition at 1 µM ([1]; D283 Med, 1 μM AG-014699): 97.1%
- Sensitisation to temozolomide by AG-014699 ([2]; D425Med (MGMT-deficient), 0.4 μM AG-014699): not sensitised; also recorded: no sensitisation; also recorded: did not enhance temozolomide sensitivity
- Growth inhibition by AG-014699 alone ([2]; D425Med, 0.4 μM, data not shown): not growth inhibitory
- PF50 ([2]; D425Med, potentiation of temozolomide by 0.4 μM AG-014699): 0.7±0.4
- Sensitisation to temozolomide by AG-014699 ([3]; D283Med (MMR-defective), 0.4 μM AG-014699): 20 fold
- Growth inhibition by AG-014699 alone ([3]; D283Med, 0.4 μM, data not shown): not growth inhibitory
- PF50 ([3]; D283Med, potentiation of temozolomide by 0.4 μM AG-014699): 19±4.7
- Sensitisation to temozolomide by AG-014699 ([4]; D384Med (MGMT+ MMR+), 0.4 μM AG-014699): > 3 fold
- Growth inhibition by AG-014699 alone ([4]; D384Med, 0.4 μM, data not shown): not growth inhibitory
- PF50 ([4]; D384Med, potentiation of temozolomide by 0.4 μM AG-014699): 3.8±1
- PARP activity in brain ([5]; 24 h after fourth daily dose 1 mg kg−1 i.p.): near-normal activity
- Reduction of PARP activity in brain ([5]; 24 h after single dose 1 mg kg−1 i.p.): approximately 40%
- Reduction of PARP activity in brain tissue ([5]; abstract, time not stated): ≥ 75%
- Reduction of PARP activity in brain ([5]; first 2 h after single dose 1 mg kg−1 i.p.): around 75%
- Reduction of PARP activity in tumour (nadir) ([6]; D283Med xenograft, 6 h post-injection, similar after first and fourth dose, 1 mg kg−1 i.p.): around 75%
- Reduction of PARP activity in xenograft tissue ([6]; abstract, time not stated): ≥ 75%
- Median nadir body weight (% starting weight) ([7]; D283Med-bearing mice, daily x5, TMZ 68 mg kg−1 p.o., AG-014699 1 mg kg−1 i.p.): 100 % starting weight
- Median time to RTV4 ([7]; D283Med, daily x5, TMZ 68 mg kg−1 p.o., AG-014699 1 mg kg−1 i.p.): 8 days
- Complete regressions ([7]; D283Med, mice with regression/group): 0/5
- Tumour growth delay ([7]; D283Med, versus control time to RTV4): 1 days
- Median nadir body weight (% starting weight) ([8]; D384Med-bearing mice, daily x5, TMZ 68 mg kg−1 p.o., AG-014699 1 mg kg−1 i.p.): 96 % starting weight
- Median time to RTV4 ([8]; D384Med, daily x5, TMZ 68 mg kg−1 p.o., AG-014699 1 mg kg−1 i.p.): 20 days
- Complete regressions ([8]; D384Med, mice with regression/group, transient): 0/5
- Tumour growth delay ([8]; D384Med, versus control time to RTV4): 4 days
